From patent publication US20230123635A1, “Compositions and Methods for Detecting Molecular Targets on Chromosomal DNA” (New England Biolabs, Inc., priority 2020, published 2023)

Experiments:
[1] = tested on: antibody-Protein A/G complex; assay: Effect of heparin on the antibody-Protein A/G complex (magnetic beads, SDS gel); format: binding; conditions: 0.125, 0.25, 0.5 and 1 mg/ml Heparin, 30 minutes, room temperature, Protein A/G magnetic beads with IgG, sodium salt
From the text: The numbers on the top indicate added heparin quantity in the reaction mgs/ml.
Antibody heavy and light chains that are bound to Protein A/G can be released by boiling and resolved on an SDS gel (B). Any antibody that was free in solution having been eluted or displaced by heparin from Protein A/G could be visualized without boiling (E).
To determine the effect of heparin on the formation of the antibody-Protein A/G complex, 5 mgs of immobilized and covalently cross-linked protein A/G magnetic beads were bound to 50 μgs of IgG molecules in a 50 μl reaction volume containing 1×PBST at room temperature for 30 minutes. The complex was washed 3 times using 1 ml of 1×PBST and incubated with 0.125, 0.25, 0.5 and 1 mg/ml Heparin for 30 minutes at room temperature in 25 μl total volume. The bead-bound (B) and unbound or bead elution (E) fractions were collected, SDS sample buffer (New England Biolabs, Ipswich, Mass.) was added and the samples were incubated at 95° C. for 5 minutes. Both B and E samples were resolved on tricine 10% acrylamide gel and stained for protein.

Nt.CviPII-Protein A = assay: Inhibition of the nicking activity of Nt.CviPII-Protein A fusion by heparin sodium salt; format: biochemical; conditions: 2.5 units Nt.CviPII-Protein A, 0.5 μg pUC19 DNA, NEBuffer 2, 40 minutes 37° C.
Method: In lanes 1-9, 2.5 units of NEFP was added to 0.5 μgs of plasmid DNA in the presence of increasing amounts of heparin (0.15-10 mg/ml). Digestion was not observed when 0.3 mg heparin/ml or greater amounts are present.
To determine the effect of heparin sodium salt on the inhibition of nicking activities of Nt.CviPII-Protein A fusion, reaction tubes containing 10, 5, 2.5, 1.25, 0.62, 0.31, 0.15, and 0 mg/ml heparin, sodium salt were added to a 50 μl reaction, consisting of 5 μl 10×NEBuffer 2, 2.5 units Nt.CviPII-Protein A (as described in Example 1(B)), and 0.5 μg pUC19 DNA and incubated for 40 minutes 37° C. 10 μl of DNA loading dye mix (5×) was added to the samples and were resolved on a 10% polyacrylamide gel. The gel was stained with SYBR® Green (Molecular Probes, Eugene, Oreg.) and scanned on a Typhoon® imager (GE Healthcare Bio-Sciences, Marlborough, Mass.).

[2] = tested on: DNA-Nt.CviPII-Protein A complex; assay: Gel-shift assay: dissociation of the DNA-Nt.CviPII-Protein A complex by heparin; format: binding; conditions: 3.2 μM Nt.CviPII-Protein A, NEBuffer 2 without magnesium, 50 μl
Method: Increasing amounts of heparin disrupts complex formation. Nicking activity is prevented by the absence of magnesium ions in the buffer.
From left to right: C is a control that is DNA in the absence of a NEFP or heparin. 0 is a control in which nicking endonuclease was added to DNA in the absence of heparin. The DNA-NEFP complex (DNA-Nt.CviPII-Protein A complex) is seen as a band at the top of the lane.
To establish that the inhibitory effect of heparin, sodium salt in untethered Nt.CviPII-Protein A fusion activity was due to selective dissociation between DNA substrate and fusion enzyme, a gel-shift assay was performed. Double stranded DNA substrate containing constant amounts of Nt.CviPII binding domains (CCA, 5′[…]-F, F=fluorescein (SEQ ID NO:9)) and 3.2 μM Nt.CviPII-Protein A fusion were combined in the presence of 1×NEBuffer 2 in the absence of magnesium for 30 minutes at room temperature to enable an enzyme-substrate complex to be formed. Increasing amounts of heparin, sodium salt (0, 2.3, 4.6, 1, 20, 42, 83, 166, 330 μg/ml) was added to the total 50 μl reaction volume. It was observed that a heparin concentration of greater than 0.2 mgs/ml (at least […]) enabled complete dissociation of the DNA-Nt.CviPII-Protein A complex as observed by the appearance of bands corresponding to DNA alone in a native 6% retardation gel (Thermo Fisher Scientific, Waltham, Mass.). […]

[3] = tested on: pBR322 circular double stranded DNA; assay: Nicking activity of Protein G/A-gHNH fusion on plasmid DNA (agarose gel); format: biochemical; conditions: 50 μl, 37° C., 1 hour; for amount of fusion enzyme giving complete nicking/digestion of DNA substrate: 1 μg pBR322, NEBuffer 2 with manganese ions (1 mM) instead of magnesium
Method: The nicking activity of Protein G-HNH was compared to a second non-fused nicking endonuclease (Nt.CviPII) (2 units) in the same gel to determine a generalized and consistent cleavage profile and was also compared to a control in the lane labeled 0 containing no nicking endonuclease either fused or unfused.
Protein G/A-gHNH fusion nicking activity was tested on pBR322 circular double stranded DNA using NEBuffer 2 in which magnesium ions were replaced by the same amount of manganese ions (1 mM). 1 μg of plasmid was used with 0.03 to 2 units of Protein G/A-gHNH fusion enzyme in a two-fold serial dilutions (2, 1, 0.5, 0.25, 0.125, 0.06, 0.03 units) in a total volume of 50 μl incubated at 37° C. for 1 hour. 10 μl of DNA loading dye mix (5×) was added to the nicked DNA. The nicked DNA samples were resolved on a 1% agarose gel and visualized under UV light. DNA fragment size was estimated along with 2 log DNA ladder (New England Biolabs, Ipswich, Mass.) and positive control Nt.CviPII (2 units) of the non-fused nicking endonuclease, (New England Biolabs, Ipswich, Mass.) digested pBR322 DNA (FIG. 1B). […] A representative figure supporting this conclusion is provided in FIG. 1B for Protein G-gHNH fusions.

amount of fusion enzyme giving complete nicking/digestion of DNA substrate [3] [units] | amount of fusion enzyme giving complete nicking/digestion of DNA substrate ([3]; listed as Protein G-gHNH fusion) | amount of fusion enzyme giving partial digestion of DNA ([3]; 1 μg pBR322, NEBuffer 2 with manganese ions) [units] | Molecule | effect of heparin on antibody bound to Protein A/G ([1]; listed as Heparin) | effect of heparin on antibody bound to Protein A/G [1] | heparin concentration giving total inhibition of nicking (no digestion observed) (Nt.CviPII-Protein A) [mg/mL] | heparin concentration giving total inhibition of nicking (no digestion observed) (Nt.CviPII-Protein A; listed as Heparin sodium salt) [mg/mL] | heparin concentration enabling complete dissociation of the DNA-Nt.CviPII-Protein A complex (parenthesis) [2] | heparin concentration enabling complete dissociation of the DNA-Nt.CviPII-Protein A complex ([2]; native 6% retardation gel)
– | – | – | heparin, sodium salt | cannot dissociate Protein A/G-antibody reaction | no elution or displacement of antibody occurred | ≥ 0.3 | 0.15 to 0.31 | at least 10 ng/μl | greater than 0.2 mgs/ml
0.25 | greater than 0.06 units | 0.03 | Protein G-gHNH: NEFP: Protein G-linker-gHNH nicking endonuclease (SEQ ID NO: 5) (protein) MKGETTTEAVDAATAEKVFKQYANDNGVDGEWTYDDATKTFTVTEKPEVIDASELTPAVTTYKLVINGKTLKGETTTEAVDAATAEKVFKQYANDNGVDGEWTYDDATKTFTVTEKPEVIDASELTPAVTTYKLVINGKTLKGETTTKAVDAETAEKAFKQYANDNGVDGVWTYDDATKTFTVTEGSATIVKKPLRPCCEFHCYNLTRERYCEEHRYKEKETQQDKNRYYDRFKRDKESTAFYRSKAWERLREQALMRDKGLCLHCKNNRKIKVADMVDHIIPIKVDPSLKLKLENLQSLCNPCHNRKTAEDKKKYG | – | – | – | – | – | –
